Measurements published in patent publication US20090311217A1, “3-SUBSTITUTED-1H-INDOLE COMPOUNDS, THEIR USE AS MTOR KINASE AND PI3 KINASE INHIBITORS, AND THEIR SYNTHESES” (priority 2008, published 2009).
Like-named read-outs stand apart in the source and are kept apart here.

Legend:
Assay type in all cases: biochemical
PI3K-alpha = PI3K-alpha (Homo sapiens, UniProt P42336); assay: PI3K-alpha fluorescence polarization assay
PI3K-beta = PI3K-beta (Homo sapiens, UniProt P42338); assay: PI3K-beta fluorescence polarization assay; conditions: read-out: PI3Kβ Avg. IC50
Sequence of PI3K-beta (P42338 whole entry, species assumed): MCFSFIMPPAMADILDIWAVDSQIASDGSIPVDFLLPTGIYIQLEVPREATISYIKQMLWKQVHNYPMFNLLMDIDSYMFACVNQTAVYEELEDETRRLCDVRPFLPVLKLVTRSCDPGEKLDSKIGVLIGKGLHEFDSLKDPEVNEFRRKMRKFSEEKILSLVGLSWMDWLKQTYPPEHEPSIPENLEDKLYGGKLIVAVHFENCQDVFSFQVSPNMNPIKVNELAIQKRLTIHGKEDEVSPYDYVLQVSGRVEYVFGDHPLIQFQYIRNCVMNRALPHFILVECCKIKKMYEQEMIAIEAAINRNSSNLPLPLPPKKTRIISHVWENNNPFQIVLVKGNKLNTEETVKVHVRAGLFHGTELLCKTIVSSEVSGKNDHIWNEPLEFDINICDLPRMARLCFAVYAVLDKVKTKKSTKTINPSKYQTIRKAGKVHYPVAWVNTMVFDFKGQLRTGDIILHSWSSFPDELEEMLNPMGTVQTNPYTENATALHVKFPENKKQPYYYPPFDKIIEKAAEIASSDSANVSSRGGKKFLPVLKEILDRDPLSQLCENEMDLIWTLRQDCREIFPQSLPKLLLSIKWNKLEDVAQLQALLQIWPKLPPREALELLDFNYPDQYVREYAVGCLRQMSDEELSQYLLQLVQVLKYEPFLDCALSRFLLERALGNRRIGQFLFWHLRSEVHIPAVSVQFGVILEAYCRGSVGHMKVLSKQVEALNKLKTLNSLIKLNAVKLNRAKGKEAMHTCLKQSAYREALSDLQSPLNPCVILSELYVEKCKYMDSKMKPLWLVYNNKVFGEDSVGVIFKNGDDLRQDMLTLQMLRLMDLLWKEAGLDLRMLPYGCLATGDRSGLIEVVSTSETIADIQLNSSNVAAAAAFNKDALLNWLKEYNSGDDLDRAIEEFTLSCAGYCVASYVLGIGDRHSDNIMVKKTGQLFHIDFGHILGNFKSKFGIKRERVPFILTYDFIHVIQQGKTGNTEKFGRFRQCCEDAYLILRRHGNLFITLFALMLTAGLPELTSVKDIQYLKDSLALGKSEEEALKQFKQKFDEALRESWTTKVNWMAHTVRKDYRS
Sequence of PI3K-beta (P27986 whole entry partner, species assumed): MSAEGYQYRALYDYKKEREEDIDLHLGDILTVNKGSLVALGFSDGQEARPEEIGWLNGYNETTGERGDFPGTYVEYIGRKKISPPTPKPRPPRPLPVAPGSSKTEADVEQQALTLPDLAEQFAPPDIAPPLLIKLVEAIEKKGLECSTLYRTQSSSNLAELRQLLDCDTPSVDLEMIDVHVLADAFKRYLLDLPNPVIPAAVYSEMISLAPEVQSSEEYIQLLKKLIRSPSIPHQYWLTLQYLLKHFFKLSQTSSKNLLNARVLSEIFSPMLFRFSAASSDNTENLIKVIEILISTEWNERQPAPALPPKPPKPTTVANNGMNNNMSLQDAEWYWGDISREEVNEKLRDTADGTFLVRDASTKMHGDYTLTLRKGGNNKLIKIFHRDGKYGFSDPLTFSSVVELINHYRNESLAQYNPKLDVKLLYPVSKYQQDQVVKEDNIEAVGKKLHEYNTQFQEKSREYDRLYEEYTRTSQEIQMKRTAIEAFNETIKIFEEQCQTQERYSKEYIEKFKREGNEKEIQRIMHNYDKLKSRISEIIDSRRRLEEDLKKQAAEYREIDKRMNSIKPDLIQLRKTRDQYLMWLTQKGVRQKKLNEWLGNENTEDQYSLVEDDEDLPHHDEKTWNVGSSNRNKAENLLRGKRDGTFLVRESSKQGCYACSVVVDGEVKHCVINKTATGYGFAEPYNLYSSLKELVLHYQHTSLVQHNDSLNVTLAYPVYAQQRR
Experimental: PI3K-Alpha, PI3K-Beta, PI3K-Gamma, and PI3K-delta Fluorescence Polarization Assay Protocols
PI3-Kinase reactions were performed in 5 mM HEPES, pH 7, 2.5 mM MgCl2, and 25 μM ATP, with diC8-PI(4,5)P2 (Echelon, Salt Lake City Utah) as substrate. Nunc 384-well black polypropylene fluorescent plates were used for PI3K assays. Reactions were quenched by the addition of EDTA to a final concentration of 10 mM. Final reaction volumes were 10 μl. For evaluation of PI3K inhibitors, 5 ng of enzyme (PI3K-alpha, beta, gamma, or delta) and 2.5 μM of substrate was used per […] reaction volume, and inhibitor concentrations ranged from 100 μM to 20 μM; the final level of DMSO in reactions never exceeded 2%. Reactions were allowed to proceed for one hour at 25° C. After 1 hour, GST-tagged GRP1 (general receptor for phosphoinositides) PH domain fusion protein was added to a final concentration of 100 nM, and BODIPY-TMRI(1,3,4,5)P4 (Echelon) was also added to a final concentration of 5 nM. Final sample volumes were 25 μl with a final DMSO concentration of 0.8%. Assay Plates were read on Perkin-Elmer Envision plate readers with appropriate filters for Tamra [BODIPY-TMRI(1,3,4,5)P4]. Data obtained were used to calculate enzymatic activity and enzyme inhibition by inhibitor compounds.

PI3K-gamma = PI3K-gamma (Homo sapiens, UniProt P48736); assay: PI3K-gamma fluorescence polarization assay; conditions: PI3Kγ Avg. IC50
Sequence of PI3K-gamma (P48736 whole entry, species assumed, the tested form may be a part): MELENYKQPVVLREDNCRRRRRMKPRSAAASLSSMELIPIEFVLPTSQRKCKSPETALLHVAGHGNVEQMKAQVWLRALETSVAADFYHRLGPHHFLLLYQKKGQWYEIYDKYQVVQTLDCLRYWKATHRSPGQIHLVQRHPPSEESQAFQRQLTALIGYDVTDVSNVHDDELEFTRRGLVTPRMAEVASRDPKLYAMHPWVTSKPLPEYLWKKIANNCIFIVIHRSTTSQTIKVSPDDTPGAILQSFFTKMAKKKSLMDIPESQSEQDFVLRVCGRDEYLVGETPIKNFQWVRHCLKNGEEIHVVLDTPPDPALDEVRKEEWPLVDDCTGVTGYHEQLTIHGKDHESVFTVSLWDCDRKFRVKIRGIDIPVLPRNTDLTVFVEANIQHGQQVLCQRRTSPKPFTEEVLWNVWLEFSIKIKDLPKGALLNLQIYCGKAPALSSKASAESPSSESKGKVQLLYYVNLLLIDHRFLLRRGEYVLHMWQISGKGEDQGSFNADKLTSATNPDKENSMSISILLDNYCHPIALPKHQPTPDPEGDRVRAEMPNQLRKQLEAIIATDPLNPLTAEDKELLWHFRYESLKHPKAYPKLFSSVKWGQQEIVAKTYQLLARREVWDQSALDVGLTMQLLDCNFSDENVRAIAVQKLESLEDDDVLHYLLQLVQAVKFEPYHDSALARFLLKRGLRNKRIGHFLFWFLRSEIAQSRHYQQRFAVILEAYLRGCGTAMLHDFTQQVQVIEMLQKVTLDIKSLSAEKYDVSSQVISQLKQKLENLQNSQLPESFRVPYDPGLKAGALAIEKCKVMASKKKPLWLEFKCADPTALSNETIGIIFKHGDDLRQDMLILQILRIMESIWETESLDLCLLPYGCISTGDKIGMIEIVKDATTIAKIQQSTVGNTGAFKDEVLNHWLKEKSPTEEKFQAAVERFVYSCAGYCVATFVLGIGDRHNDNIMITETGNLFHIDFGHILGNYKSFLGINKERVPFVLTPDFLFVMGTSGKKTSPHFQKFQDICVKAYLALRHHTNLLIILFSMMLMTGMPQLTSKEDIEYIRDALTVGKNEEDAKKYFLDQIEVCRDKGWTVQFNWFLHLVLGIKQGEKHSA
Summary of the method: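 Inhibition is derived from a polarization signal: after a 1 h, 25° C kinase step (25 μM ATP, 2.5 μM diC8-PIP2, pH 7), EDTA stops the reaction and the GRP1 PH domain/TMR-IP4 pair reports lipid product.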

PI3K-delta = PI3K-delta (Homo sapiens, UniProt O00329); assay: PI3K-delta fluorescence polarization assay
Sequence of PI3K-delta (O00329 whole entry, species assumed): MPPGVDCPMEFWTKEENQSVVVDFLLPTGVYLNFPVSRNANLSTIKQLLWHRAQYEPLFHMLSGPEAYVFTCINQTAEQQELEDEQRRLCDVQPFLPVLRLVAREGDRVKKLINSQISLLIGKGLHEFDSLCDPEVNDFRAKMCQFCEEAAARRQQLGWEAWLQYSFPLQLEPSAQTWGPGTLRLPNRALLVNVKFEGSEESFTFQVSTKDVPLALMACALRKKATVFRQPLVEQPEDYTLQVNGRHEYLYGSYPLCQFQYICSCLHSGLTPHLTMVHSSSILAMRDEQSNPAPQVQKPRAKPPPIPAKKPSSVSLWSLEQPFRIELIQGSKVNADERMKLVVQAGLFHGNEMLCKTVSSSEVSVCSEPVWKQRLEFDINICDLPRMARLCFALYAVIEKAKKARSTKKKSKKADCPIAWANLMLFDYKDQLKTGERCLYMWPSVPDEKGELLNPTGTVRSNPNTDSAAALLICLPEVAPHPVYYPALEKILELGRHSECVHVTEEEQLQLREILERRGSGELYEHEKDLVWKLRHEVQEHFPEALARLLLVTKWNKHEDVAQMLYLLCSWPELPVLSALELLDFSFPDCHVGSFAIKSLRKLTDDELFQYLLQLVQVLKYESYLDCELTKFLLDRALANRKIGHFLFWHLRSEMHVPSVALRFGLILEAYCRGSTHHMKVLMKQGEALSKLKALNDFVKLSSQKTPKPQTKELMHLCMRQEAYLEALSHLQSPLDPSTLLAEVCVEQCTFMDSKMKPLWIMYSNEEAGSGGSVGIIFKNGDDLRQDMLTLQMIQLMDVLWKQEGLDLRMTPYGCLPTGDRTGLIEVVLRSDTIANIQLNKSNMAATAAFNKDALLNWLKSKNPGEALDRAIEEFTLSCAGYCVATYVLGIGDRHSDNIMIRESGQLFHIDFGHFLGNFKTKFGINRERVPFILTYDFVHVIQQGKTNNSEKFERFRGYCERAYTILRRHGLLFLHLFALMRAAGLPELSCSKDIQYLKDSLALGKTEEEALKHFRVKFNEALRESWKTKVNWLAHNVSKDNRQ
Sequence of PI3K-delta (P27986 whole entry partner, species assumed): as the sequence (P27986 whole entry partner, species assumed) above

human TOR = molecular target: T1, human TOR (Homo sapiens, UniProt P42345); assay: mTOR enzyme assay (DELFIA, His6-S6K substrate); conditions: read-out: mTOR Kinase Avg. IC50
T1 construct: FLAG

Sequence of PI3K-alpha (P42336 whole entry, species assumed): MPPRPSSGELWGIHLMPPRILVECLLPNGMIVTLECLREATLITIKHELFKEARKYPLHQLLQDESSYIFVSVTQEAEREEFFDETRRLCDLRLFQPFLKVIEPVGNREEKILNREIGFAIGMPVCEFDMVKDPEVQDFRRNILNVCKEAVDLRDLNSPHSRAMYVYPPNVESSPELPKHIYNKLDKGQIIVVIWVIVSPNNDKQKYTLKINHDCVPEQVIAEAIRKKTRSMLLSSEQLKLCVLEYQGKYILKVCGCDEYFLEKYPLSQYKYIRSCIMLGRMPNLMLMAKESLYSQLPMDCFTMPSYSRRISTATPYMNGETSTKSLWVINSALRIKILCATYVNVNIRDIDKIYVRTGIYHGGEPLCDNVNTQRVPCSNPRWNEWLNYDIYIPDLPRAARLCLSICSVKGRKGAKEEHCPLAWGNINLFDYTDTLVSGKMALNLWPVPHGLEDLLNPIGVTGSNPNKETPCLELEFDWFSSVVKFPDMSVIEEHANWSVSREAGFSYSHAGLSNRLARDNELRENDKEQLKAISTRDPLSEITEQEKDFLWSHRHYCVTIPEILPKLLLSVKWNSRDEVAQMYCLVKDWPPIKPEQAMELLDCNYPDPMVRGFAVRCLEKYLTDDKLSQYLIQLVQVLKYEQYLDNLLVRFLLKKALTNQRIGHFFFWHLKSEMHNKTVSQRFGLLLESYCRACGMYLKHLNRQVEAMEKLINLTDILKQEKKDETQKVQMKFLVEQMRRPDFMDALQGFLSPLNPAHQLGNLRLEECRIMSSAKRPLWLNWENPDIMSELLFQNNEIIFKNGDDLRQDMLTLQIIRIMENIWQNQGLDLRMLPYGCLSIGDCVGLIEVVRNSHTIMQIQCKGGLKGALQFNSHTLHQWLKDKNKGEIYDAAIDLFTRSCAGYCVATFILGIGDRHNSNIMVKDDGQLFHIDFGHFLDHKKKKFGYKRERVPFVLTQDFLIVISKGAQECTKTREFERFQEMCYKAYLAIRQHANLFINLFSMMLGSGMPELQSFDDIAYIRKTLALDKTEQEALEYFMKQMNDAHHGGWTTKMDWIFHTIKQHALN
Sequence of PI3K-alpha (P27986 whole entry partner, species assumed): as the sequence (P27986 whole entry partner, species assumed) above

IC50 (PI3K-beta) [µM]	IC50 (PI3K-gamma) [µM]	IC50 (PI3K-delta; read-out: PI3Kδ Avg. IC50) [µM]	IC50 (human TOR) [µM]	IC50 (PI3K-alpha; read-out: PI3Kα Avg. IC50) [µM]	SMILES	IC50 (PI3K-alpha; PI3Kα Avg. IC50) [µM]	IC50 (PI3K-delta) [µM]
0.0125	0.283	0.003	0.0555	0.012	COc1ccc2c(c1)c(C=C1Oc3cc(O)cc(O)c3C1=O)c(C)n2CCCCN1CCN(CCN2CCOCC2)CC1 [Example 100, 4,6-dihydroxy-2-[(5-methoxy-2-methyl-1-{4-[4-(2-morpholin-4-ylethyl)piperazin-1-yl]butyl}-1H-indol-3-yl)methylene]-1-benzofuran-3(2H)-one]	–	–
0.0065	0.377	0.001	0.046	0.0053	COc1ccc2c(c1)c(C=C1Oc3cc(O)cc(O)c3C1=O)c(C)n2CCCCN(C)C [Example 101, 2-({1-[4-(dimethylamino)butyl]-5-methoxy-2-methyl-1H-indol-3-yl}methylene)-4,6-dihydroxy-1-benzofuran-3(2H)-one]	–	–
0.045	0.0755	0.0019	< 0.025	0.0085	COc1ccc2c(c1)c(C=C1Oc3cc(O)cc(O)c3C1=O)c(C)n2CCCN1CCOCC1 [Example 102, 4,6-dihydroxy-2-{[5-methoxy-2-methyl-1-(3-morpholin-4-ylpropyl)-1H-indol-3-yl]methylene}-1-benzofuran-3(2H)-one]	–	–
0.022	0.108	0.002	0.108	0.0066	COc1ccc2c(c1)c(C=C1Oc3cc(O)cc(O)c3C1=O)c(C)n2CCCN1CCN(CCO)CC1 [Example 103, 4,6-dihydroxy-2-[(1-{3-[4-(2-hydroxyethyl)piperazin-1-yl]propyl}-5-methoxy-2-methyl-1H-indol-3-yl)methylene]-1-benzofuran-3(2H)-one]	–	–
0.019	0.162	0.0023	0.13	0.0057	COc1ccc2c(c1)c(C=C1Oc3cc(O)cc(O)c3C1=O)c(C)n2CCCN1CCC(N(C)C)C1 (stereo not drawn) [Example 104, 2-[(1-{3-[3-(dimethylamino)pyrrolidin-1-yl]propyl}-5-methoxy-2-methyl-1H-indol-3-yl)methylene]-4,6-dihydroxy-1-benzofuran-3(2H)-one]	–	–
0.0505	0.724	0.002	0.14	0.0096	COc1ccc2c(c1)c(C=C1Oc3cc(O)cc(O)c3C1=O)c(C)n2CCCN1CCN(CCN2CCOCC2)CC1 [Example 105, 4,6-dihydroxy-2-[(5-methoxy-2-methyl-1-{3-[4-(2-morpholin-4-ylethyl)piperazin-1-yl]propyl}-1H-indol-3-yl)methylene]-1-benzofuran-3(2H)-one]	–	–
0.0175	0.404	0.002	0.117	0.0053	COc1ccc2c(c1)c(C=C1Oc3cc(O)cc(O)c3C1=O)c(C)n2CCCN(C)C [Example 106, 2-({1-[3-(dimethylamino)propyl]-5-methoxy-2-methyl-1H-indol-3-yl}methylene)-4,6-dihydroxy-1-benzofuran-3(2H)-one]	–	–

Continued, molecule first:

SMILES	IC50 (PI3K-beta) [µM]	IC50 (PI3K-gamma) [µM]	IC50 (PI3K-delta; read-out: PI3Kδ Avg. IC50) [µM]	IC50 (human TOR) [µM]	IC50 (PI3K-alpha; read-out: PI3Kα Avg. IC50) [µM]	IC50 (PI3K-alpha; PI3Kα Avg. IC50) [µM]	IC50 (PI3K-delta) [µM]
COc1ccc2[nH]cc(/C=C3\Oc4cc(O)cc(O)c4C3=O)c2c1 [Example 59, (2Z)-4,6-dihydroxy-2-[(5-methoxy-1H-indol-3-yl)methylene]-1-benzofuran-3(2H)-one]	0.173	0.269	0.07	0.265	–	0.0302	–
Cc1[nH]c2ccc(Br)cc2c1/C=C1\Oc2cc(O)cc(O)c2C1=O [Example 61, (2Z)-2-[(5-bromo-2-methyl-1H-indol-3-yl)methylene]-4,6-dihydroxy-1-benzofuran-3(2H)-one]	0.567	2.22	0.374	0.19	–	0.179	–
COc1ccc2[nH]c(C)c(C=C3Oc4cc(O)cc(O)c4C3=O)c2c1 [Example 73, 4,6-dihydroxy-2-[(5-methoxy-2-methyl-1H-indol-3-yl)methylene]-1-benzofuran-3(2H)-one]	0.008	0.025	0.0058	0.0027	0.0027	–	–
COc1ccc2c(c1)c(C=C1Oc3cc(O)cc(O)c3C1=O)cn2C [Example 84, 4,6-dihydroxy-2-[(5-methoxy-1-methyl-1H-indol-3-yl)methylene]-1-benzofuran-3(2H)-one]	0.547	0.586	–	0.0653	–	0.106	0.11
COc1ccc2[nH]c(C)c(C=C3Oc4cccc(O)c4C3=O)c2c1 [Example 86, 4-hydroxy-2-[(5-methoxy-2-methyl-1H-indol-3-yl)methylene]-1-benzofuran-3(2H)-one]	0.098	0.355	0.047	0.0848	0.184	–	–
COc1ccc2c(c1)c(C=C1Oc3cc(O)cc(O)c3C1=O)c(C)n2CCCCl [Example 88, 2-{[1-(3-chloropropyl)-5-methoxy-2-methyl-1H-indol-3-yl]methylene}-4,6-dihydroxy-1-benzofuran-3(2H)-one]	0.052	0.0737	0.0035	< 0.021	0.0097	–	–
COc1ccc2c(c1)c(C=C1Oc3cc(O)cc(O)c3C1=O)c(C)n2C [Example 89, 4,6-dihydroxy-2-[(5-methoxy-1,2-dimethyl-1H-indol-3-yl)methylene]-1-benzofuran-3(2H)-one]	0.019	0.0543	0.008	0.0035	–	0.0069	–
COc1ccc2[nH]c(-c3cccnc3)c(C=C3Oc4cc(O)cc(O)c4C3=O)c2c1 [Example 91, 4,6-dihydroxy-2-[(5-methoxy-2-pyridin-3-yl-1H-indol-3-yl)methylene]-1-benzofuran-3(2H)-one]	0.0055	0.0095	0.0018	< 0.05	< 0.0022	–	–
Cc1c(C=C2Oc3cc(O)cc(O)c3C2=O)c2ccccc2n1CCCCCl [Example 94, 2-{[1-(4-chlorobutyl)-2-methyl-1H-indol-3-yl]methylene}-4,6-dihydroxy-1-benzofuran-3(2H)-one]	0.671	5.86	1.02	> 5	2.24	–	–
COc1ccc2c(c1)c(C=C1Oc3cc(O)cc(O)c3C1=O)c(C)n2CCCN1CCN(C)CC1 [Example 95, 4,6-dihydroxy-2-({5-methoxy-2-methyl-1-[3-(4-methylpiperazin-1-yl)propyl]-1H-indol-3-yl}methylene)-1-benzofuran-3(2H)-one]	0.027	0.402	0.002	0.153	–	0.0147	–
COc1ccc2c(c1)c(C=C1Oc3cc(O)cc(O)c3C1=O)c(C)n2CCCCN1CCN(C)CC1 [Example 96, 4,6-dihydroxy-2-({5-methoxy-2-methyl-1-[4-(4-methylpiperazin-1-yl)butyl]-1H-indol-3-yl}methylene)-1-benzofuran-3(2H)-one]	0.01	0.238	0.002	< 0.031	0.0113	–	–
COc1ccc2c(c1)c(C=C1Oc3cc(O)cc(O)c3C1=O)c(C)n2CCCCN1CCOCC1 [Example 97, 4,6-dihydroxy-2-{[5-methoxy-2-methyl-1-(4-morpholin-4-ylbutyl)-1H-indol-3-yl]methylene}-1-benzofuran-3(2H)-one]	0.009	0.139	0.0009	< 0.047	0.0087	–	–
COc1ccc2c(c1)c(C=C1Oc3cc(O)cc(O)c3C1=O)c(C)n2CCCCN1CCN(CCO)CC1 [Example 98, 4,6-dihydroxy-2-[(1-{4-[4-(2-hydroxyethyl)piperazin-1-yl]butyl}-5-methoxy-2-methyl-1H-indol-3-yl)methylene]-1-benzofuran-3(2H)-one]	0.0105	0.248	0.001	0.0585	0.0094	–	–
COc1ccc2c(c1)c(C=C1Oc3cc(O)cc(O)c3C1=O)c(C)n2CCCCN1CCC(N(C)C)C1 (stereo not drawn) [Example 99, 2-[(1-{4-[3-(dimethylamino)pyrrolidin-1-yl]butyl}-5-methoxy-2-methyl-1H-indol-3-yl)methylene]-4,6-dihydroxy-1-benzofuran-3(2H)-one]	0.008	0.331	0.002	0.0725	0.0083	–	–
